Patent US9456604B2, “Herbicide composition” (Syngenta Crop Protection, LLC, priority 2008, dated 2016)

Assays:
Format in all cases: in vivo
[1] = tested on: Ipomoea hederacea (IPOHE); assay: Greenhouse trial, effect of pH on selectivity: weed; conditions: early POST, 200 l/ha
Experimental: (§1) A greenhouse trial was conducted to look at the effect of pH on the selectivity of an emulsifiable concentrate composition comprising compound B (compound of formula wherein R^1=methoxy-propyl and R^2═CHF2). Applications were made early POST using four corn varieties and eight weeds (Broad leaf weeds: Amaranthus retroflexus (AMARE), Ipomoea hederacea (IPOHE), Polygonum convolvulus (POLCO) Grasses: Digitaria sanuinalis (DIGSA), Echinochloa crus-galli (ECHCG), Eriochloa villosa (ERBVI), Panicum dichotomiflorum (PANDI), Setaria viridus (SETVI)). The spray volume applied was 200 l/ha. Phytotoxicity evaluations were made 8 days after application (DAA) and/or 28 DAA. Results are provided as % phytotoxicity observed wherein 0=no visible phytotoxicity to 100=complete phytotoxicity.

[2] = tested on: Echinochloa crus-galli (ECHCG); assay: as above; conditions: early POST, 200 l/ha
Experimental: as §1

Setaria viridus (SETVI) = assay: as above; conditions: early POST, 200 l/ha
Experimental: as §1

[3] = tested on: Amaranthus retroflexus (AMARE); assay: as above; conditions: early POST, 200 l/ha
Experimental: as §1

[4] = tested on: Polygonum convolvulus (POLCO); assay: as above; conditions: early POST, 200 l/ha
Experimental: as §1

[5] = tested on: Eriochloa villosa (ERBVI); assay: as above; conditions: early POST, 200 l/ha
Experimental: as §1

[6] = tested on: Panicum dichotomiflorum (PANDI); assay: as above; conditions: early POST, 200 l/ha
Experimental: as §1

[7] = tested on: Digitaria sanuinalis (DIGSA); assay: as above; conditions: early POST, 200 l/ha
Experimental: as §1

corn = assay: Greenhouse trial, effect of pH on selectivity: four corn varieties; conditions: for % phytotoxicity observed, Corn "Cecilia" 8 DAA / % phytotoxicity observed, Corn "Lorenzo" 8 DAA / % phytotoxicity observed, Corn "Marista" 8 DAA / % phytotoxicity observed, Corn "Blizzard" 28 DAA / % phytotoxicity observed, Corn "Cecilia" 28 DAA / % phytotoxicity observed, Corn "Lorenzo" 28 DAA / % phytotoxicity observed, Corn "Marista" 28 DAA / % phytotoxicity observed, Corn "Blizzard" 8 DAA: early POST, 200 l/ha
Experimental: as §1

COCCCc1nc(C(F)F)ccc1C(=O)C1C(=O)C2CCC(C2)C1=O (stereo not drawn) [Compound B]
% phytotoxicity observed, IPOHE 8 DAA ([1]; 100 g ai/ha, pH 3, 8 DAA): 80% | % phytotoxicity observed, IPOHE 8 DAA ([1]; 100 g ai/ha, pH 8, 8 DAA): 85% | % phytotoxicity observed, IPOHE 8 DAA ([1]; 200 g ai/ha, pH 3, 8 DAA): 95% | % phytotoxicity observed, IPOHE 8 DAA ([1]; 200 g ai/ha, pH 8, 8 DAA): 90% | % phytotoxicity observed, ECHCG 8 DAA ([2]; 100 g ai/ha, pH 3, 8 DAA): 80% | % phytotoxicity observed, ECHCG 8 DAA ([2]; 100 g ai/ha, pH 8, 8 DAA): 95% | % phytotoxicity observed, ECHCG 8 DAA ([2]; 200 g ai/ha, pH 3, 8 DAA): 98% | % phytotoxicity observed, ECHCG 8 DAA ([2]; 200 g ai/ha, pH 8, 8 DAA): 95% | % phytotoxicity observed, SETVI 8 DAA (Setaria viridus (SETVI); 100 g ai/ha, pH 3, 8 DAA): 90% | % phytotoxicity observed, SETVI 8 DAA (Setaria viridus (SETVI); 100 g ai/ha, pH 8, 8 DAA): 90% | % phytotoxicity observed, SETVI 8 DAA (Setaria viridus (SETVI); 200 g ai/ha, pH 3, 8 DAA): 100% | % phytotoxicity observed, SETVI 8 DAA (Setaria viridus (SETVI); 200 g ai/ha, pH 8, 8 DAA): 98% | % phytotoxicity observed, AMARE 8 DAA ([3]; 100 g ai/ha, pH 3, 8 DAA): 98% | % phytotoxicity observed, AMARE 8 DAA ([3]; 100 g ai/ha, pH 8, 8 DAA): 95% | % phytotoxicity observed, AMARE 8 DAA ([3]; 200 g ai/ha, pH 3, 8 DAA): 100% | % phytotoxicity observed, AMARE 8 DAA ([3]; 200 g ai/ha, pH 8, 8 DAA): 98% | % phytotoxicity observed, POLCO 8 DAA ([4]; 100 g ai/ha, pH 3, 8 DAA): 80% | % phytotoxicity observed, POLCO 8 DAA ([4]; 100 g ai/ha, pH 8, 8 DAA): 70% | % phytotoxicity observed, POLCO 8 DAA ([4]; 200 g ai/ha, pH 3, 8 DAA): 95% | % phytotoxicity observed, POLCO 8 DAA ([4]; 200 g ai/ha, pH 8, 8 DAA): 90% | % phytotoxicity observed, ERBVI 8 DAA ([5]; 100 g ai/ha, pH 3, 8 DAA): 80% | % phytotoxicity observed, ERBVI 8 DAA ([5]; 100 g ai/ha, pH 8, 8 DAA): 98% | % phytotoxicity observed, ERBVI 8 DAA ([5]; 200 g ai/ha, pH 3, 8 DAA): 90% | % phytotoxicity observed, ERBVI 8 DAA ([5]; 200 g ai/ha, pH 8, 8 DAA): 98% | % phytotoxicity observed, PANDI 8 DAA ([6]; 100 g ai/ha, pH 3, 8 DAA): 98% | % phytotoxicity observed, PANDI 8 DAA ([6]; 100 g ai/ha, pH 8, 8 DAA): 98% | % phytotoxicity observed, PANDI 8 DAA ([6]; 200 g ai/ha, pH 3, 8 DAA): 100% | % phytotoxicity observed, PANDI 8 DAA ([6]; 200 g ai/ha, pH 8, 8 DAA): 100% | % phytotoxicity observed, DIGSA 8 DAA ([7]; 100 g ai/ha, pH 3, 8 DAA): 85% | % phytotoxicity observed, DIGSA 8 DAA ([7]; 100 g ai/ha, pH 8, 8 DAA): 85% | % phytotoxicity observed, DIGSA 8 DAA ([7]; 200 g ai/ha, pH 3, 8 DAA): 100% | % phytotoxicity observed, DIGSA 8 DAA ([7]; 200 g ai/ha, pH 8, 8 DAA): 95% | % phytotoxicity observed, Corn "Cecilia" 8 DAA (corn; 100 g ai/ha, pH 3, 8 DAA): 5% | % phytotoxicity observed, Corn "Lorenzo" 8 DAA (corn; 100 g ai/ha, pH 3, 8 DAA): 20% | % phytotoxicity observed, Corn "Marista" 8 DAA (corn; 100 g ai/ha, pH 3, 8 DAA): 5% | % phytotoxicity observed, Corn "Blizzard" 28 DAA (corn; 100 g ai/ha, pH 3, 28 DAA): 10% | % phytotoxicity observed, Corn "Cecilia" 28 DAA (corn; 100 g ai/ha, pH 3, 28 DAA): 10% | % phytotoxicity observed, Corn "Lorenzo" 28 DAA (corn; 100 g ai/ha, pH 3, 28 DAA): 25% | % phytotoxicity observed, Corn "Marista" 28 DAA (corn; 100 g ai/ha, pH 3, 28 DAA): 5% | % phytotoxicity observed, Corn "Cecilia" 8 DAA (corn; 100 g ai/ha, pH 8, 8 DAA): 5% | % phytotoxicity observed, Corn "Lorenzo" 8 DAA (corn; 100 g ai/ha, pH 8, 8 DAA): 20% | % phytotoxicity observed, Corn "Marista" 8 DAA (corn; 100 g ai/ha, pH 8, 8 DAA): 5% | % phytotoxicity observed, Corn "Blizzard" 28 DAA (corn; 100 g ai/ha, pH 8, 28 DAA): 10% | % phytotoxicity observed, Corn "Cecilia" 28 DAA (corn; 100 g ai/ha, pH 8, 28 DAA): 10% | % phytotoxicity observed, Corn "Lorenzo" 28 DAA (corn; 100 g ai/ha, pH 8, 28 DAA): 20% | % phytotoxicity observed, Corn "Marista" 28 DAA (corn; 100 g ai/ha, pH 8, 28 DAA): 5% | % phytotoxicity observed, Corn "Blizzard" 8 DAA (corn; 200 g ai/ha, pH 3, 8 DAA): 25% | % phytotoxicity observed, Corn "Cecilia" 8 DAA (corn; 200 g ai/ha, pH 3, 8 DAA): 20% | % phytotoxicity observed, Corn "Lorenzo" 8 DAA (corn; 200 g ai/ha, pH 3, 8 DAA): 30% | % phytotoxicity observed, Corn "Marista" 8 DAA (corn; 200 g ai/ha, pH 3, 8 DAA): 30% | % phytotoxicity observed, Corn "Blizzard" 28 DAA (corn; 200 g ai/ha, pH 3, 28 DAA): 20% | % phytotoxicity observed, Corn "Cecilia" 28 DAA (corn; 200 g ai/ha, pH 3, 28 DAA): 20% | % phytotoxicity observed, Corn "Lorenzo" 28 DAA (corn; 200 g ai/ha, pH 3, 28 DAA): 30% | % phytotoxicity observed, Corn "Marista" 28 DAA (corn; 200 g ai/ha, pH 3, 28 DAA): 15% | % phytotoxicity observed, Corn "Blizzard" 8 DAA (corn; 200 g ai/ha, pH 8, 8 DAA): 20% | % phytotoxicity observed, Corn "Cecilia" 8 DAA (corn; 200 g ai/ha, pH 8, 8 DAA): 20% | % phytotoxicity observed, Corn "Lorenzo" 8 DAA (corn; 200 g ai/ha, pH 8, 8 DAA): 25% | % phytotoxicity observed, Corn "Marista" 8 DAA (corn; 200 g ai/ha, pH 8, 8 DAA): 5% | % phytotoxicity observed, Corn "Blizzard" 28 DAA (corn; 200 g ai/ha, pH 8, 28 DAA): 10% | % phytotoxicity observed, Corn "Cecilia" 28 DAA (corn; 200 g ai/ha, pH 8, 28 DAA): 10% | % phytotoxicity observed, Corn "Lorenzo" 28 DAA (corn; 200 g ai/ha, pH 8, 28 DAA): 25% | % phytotoxicity observed, Corn "Marista" 28 DAA (corn; 200 g ai/ha, pH 8, 28 DAA): 5% | phytotoxicity observed in corn when applied at pH 8 rather than pH 3 (corn; pH 8 versus pH 3, greenhouse trial, Table C): significantly decreased
